Drawing on the SangsterLogP compilation, this text covers logP for 25 molecules.

A word on the logP: it is the decadic logarithm of the partition coefficient of the neutral form, usually between octanol and water.

Molecule `Clc1cc(Cl)c(-c2c(Cl)cccc2Cl)c(Cl)c1Cl` registered a logP of 6.28.
In the case of `Clc1cc(Cl)cc(-c2cc(Cl)c(Cl)c(Cl)c2Cl)c1` it was 7.01; in that of `Clc1cc(Cl)c(Cl)c(-c2ccc(Cl)c(Cl)c2Cl)c1`, 6.79; in that of `Clc1cc(Cl)c(Cl)c(-c2cc(Cl)c(Cl)cc2Cl)c1`, 6.71.
Consider `Clc1cccc(-c2c(Cl)c(Cl)c(Cl)c(Cl)c2Cl)c1`, for which the lipophilicity (logP) amounted to 6.84.
In the case of `Clc1ccc(-c2cc(Cl)c(Cl)c(Cl)c2Cl)c(Cl)c1` it was 6.8; in that of `Clc1cc(Cl)c(Cl)c(-c2c(Cl)cccc2Cl)c1Cl`, 6.1.
In the case of `Clc1cc(Cl)c(Cl)c(-c2c(Cl)ccc(Cl)c2Cl)c1` it was 6.41; in that of `Clc1cc(Cl)c(Cl)c(-c2cc(Cl)c(Cl)c(Cl)c2)c1`, 7.02.
Molecule `Clc1cc(Cl)c(-c2cc(Cl)c(Cl)c(Cl)c2)c(Cl)c1` displayed a log partition coefficient (logP) of 6.74.
For `Clc1cc(Cl)c(-c2cc(Cl)c(Cl)cc2Cl)c(Cl)c1`, the log partition coefficient (logP) was 6.46.
In turn, `Clc1cc(Cl)c(-c2cc(Cl)cc(Cl)c2Cl)c(Cl)c1` yielded a log partition coefficient (logP) of 6.45.
`Clc1cc(Cl)c(-c2c(Cl)ccc(Cl)c2Cl)cc1Cl` displayed a lipophilicity (logP) of 6.46.
Next, `Clc1cc(Cl)c(Cl)c(-c2cc(Cl)cc(Cl)c2Cl)c1`: 6.63; `Clc1cc(-c2c(Cl)cccc2Cl)c(Cl)c(Cl)c1Cl`: 6.5; `Clc1cc(Cl)c(-c2c(Cl)ccc(Cl)c2Cl)c(Cl)c1`: 6.31.
Turning to `Clc1cc(Cl)cc(-c2c(Cl)cc(Cl)c(Cl)c2Cl)c1`, the log partition coefficient (logP) turned out to be 6.68.
In turn, `Clc1cccc(-c2c(Cl)cc(Cl)c(Cl)c2Cl)c1Cl` registered a logP of 6.43.
As for `Clc1cccc(-c2c(Cl)c(Cl)cc(Cl)c2Cl)c1Cl`, the lipophilicity (logP) stood at 6.42.
With `Clc1cc(Cl)cc(-c2c(Cl)c(Cl)cc(Cl)c2Cl)c1`, the logP was 6.68.
Turning to `Clc1ccccc1-c1c(Cl)c(Cl)c(Cl)c(Cl)c1Cl`, the log partition coefficient (logP) was 6.49. This logP and that of the molecule before are within 0.2 log units of each other.
On to `Clc1ccc(-c2c(Cl)c(Cl)cc(Cl)c2Cl)c(Cl)c1`, for which the lipophilicity (logP) was 6.52.
Next, `Clc1ccc(-c2c(Cl)c(Cl)c(Cl)c(Cl)c2Cl)cc1`: 6.87; `Clc1ccc(-c2c(Cl)ccc(Cl)c2Cl)c(Cl)c1Cl`: 6.61; `Clc1ccc(Cl)c(-c2c(Cl)ccc(Cl)c2Cl)c1Cl`: 6.27.
